ChEMBL document CHEMBL1157542, “Design and synthesis of potent and selective BACE-1 inhibitors” (J Med Chem, 2010)

Experiments:
[1] = biological target: Cathepsin D (Homo sapiens, UniProt P07339)
Description: Inhibition of human liver cathepsin D

[2] = biological target: Beta-secretase 1 (Homo sapiens, UniProt P56817); test: biochemical
Beta-secretase 1, sequence (P56817 whole entry): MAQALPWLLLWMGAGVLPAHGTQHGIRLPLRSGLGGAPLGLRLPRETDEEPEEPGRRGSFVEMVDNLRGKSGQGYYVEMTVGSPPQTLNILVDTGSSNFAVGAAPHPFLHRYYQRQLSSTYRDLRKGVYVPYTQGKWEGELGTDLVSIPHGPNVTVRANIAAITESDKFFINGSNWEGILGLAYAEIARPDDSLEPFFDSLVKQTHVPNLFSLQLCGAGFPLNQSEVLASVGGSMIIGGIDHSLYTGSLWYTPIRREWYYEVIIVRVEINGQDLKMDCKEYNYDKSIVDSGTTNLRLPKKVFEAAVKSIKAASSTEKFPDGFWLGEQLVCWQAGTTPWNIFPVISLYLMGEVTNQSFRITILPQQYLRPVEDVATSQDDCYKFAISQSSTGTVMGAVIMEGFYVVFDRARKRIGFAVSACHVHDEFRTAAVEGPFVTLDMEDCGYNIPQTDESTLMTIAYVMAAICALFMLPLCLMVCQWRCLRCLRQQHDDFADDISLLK
Description: Inhibition of human BACE1 expressed in Escherichia coli cells (BL21(DE3) by TRF assay

Cathepsin D, sequence (P07339 65-162 limits assumed): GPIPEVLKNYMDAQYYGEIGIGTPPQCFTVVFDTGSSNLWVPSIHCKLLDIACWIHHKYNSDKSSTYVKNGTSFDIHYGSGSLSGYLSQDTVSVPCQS
Cathepsin D, sequence (P07339 169-412 limits assumed): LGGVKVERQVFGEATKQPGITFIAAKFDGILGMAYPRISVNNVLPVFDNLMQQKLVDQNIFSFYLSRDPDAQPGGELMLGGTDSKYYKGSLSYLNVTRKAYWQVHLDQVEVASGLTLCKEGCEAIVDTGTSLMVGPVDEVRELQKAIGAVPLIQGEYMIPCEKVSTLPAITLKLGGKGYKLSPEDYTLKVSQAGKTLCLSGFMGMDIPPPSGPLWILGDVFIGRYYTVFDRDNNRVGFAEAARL

CO[C@H](C[C@H](O)[C@H](COc1cc(F)cc(F)c1)NC(=O)c1cc(C(=O)N[C@H](C)c2ccccc2)cc(N(C)CS(C)(=O)=O)c1)C(=O)Nc1ccccc1
Ki [1]: > 5000 nM
Ki [2]: 200 nM

CO[C@H](C[C@H](O)[C@H](COc1cc(F)cc(F)c1)NC(=O)c1cc(C(=O)N[C@H](C)c2ccccc2)cc(N(C)CS(C)(=O)=O)c1)C(=O)Nc1ccc(F)cc1
Ki [1]: > 5000 nM
Ki [2]: 100 nM

CCCN(CCC)C(=O)c1cccc(C(=O)N[C@@H](COCc2cc(F)cc(F)c2)[C@@H](O)C[C@@H](OC)C(=O)NC2CC2)c1
Ki [2]: > 10000 nM

CO[C@H](C[C@H](O)[C@H](COCc1ccc(Br)cc1)NC(=O)c1cc(C(=O)N[C@H](C)c2ccccc2)cc(N(C)CS(C)(=O)=O)c1)C(=O)N[C@H](C(=O)NCc1ccccc1)C(C)C
Ki [2]: 60 nM

CO[C@H](C[C@H](O)[C@H](COc1cc(F)cc(F)c1)NC(=O)c1cc(C(=O)N[C@H](C)c2ccccc2)cc(N(C)CS(C)(=O)=O)c1)C(=O)N[C@H](C(=O)NCc1ccccc1)C(C)C
Ki [1]: 1100 nM
Ki [2]: < 1 nM

CO[C@H](C[C@H](O)[C@H](COc1cc(F)cc(F)c1)NC(=O)c1cc(C(=O)N[C@H](C)c2ccccc2)cc(N(C)CS(C)(=O)=O)c1)C(=O)NCc1ccccc1
Ki [1]: > 5000 nM
Ki [2]: 1400 nM

CO[C@H](C[C@H](O)[C@H](COCc1cc(F)cc(F)c1)NC(=O)c1cc(C(=O)N[C@H](C)c2ccccc2)cc(N(C)CS(C)(=O)=O)c1)C(=O)N[C@H](C(=O)NCc1ccccc1)C(C)C
Ki [2]: 80 nM

CO[C@H](C[C@H](O)[C@H](COc1ccc(Br)cc1)NC(=O)c1cc(C(=O)N[C@H](C)c2ccccc2)cc(N(C)CS(C)(=O)=O)c1)C(=O)N[C@H](C(=O)NCc1ccccc1)C(C)C
Ki [1]: 840 nM
Ki [2]: 75 nM

CO[C@H](C[C@H](O)[C@H](COc1ccccc1)NC(=O)c1cc(C(=O)N[C@H](C)c2ccccc2)cc(N(C)CS(C)(=O)=O)c1)C(=O)N[C@H](C(=O)NCc1ccccc1)C(C)C
Ki [1]: 460 nM
Ki [2]: 9 nM

CO[C@H](C[C@H](O)[C@H](COc1cc(F)cc(F)c1)NC(=O)c1cc(C(=O)N[C@H](C)c2ccccc2)cc(N(C)CS(C)(=O)=O)c1)C(=O)NC1CC1
Ki [1]: > 5000 nM
Ki [2]: 1800 nM

CO[C@H](C[C@H](O)[C@H](COc1cc(F)cc(F)c1)NC(=O)c1cc(C(=O)N[C@H](C)c2ccccc2)cc(N(C)CS(C)(=O)=O)c1)C(=O)NCC(C)C
Ki [1]: > 5000 nM
Ki [2]: 400 nM

CCCN(CCC)C(=O)c1cccc(C(=O)N[C@@H](COc2cc(F)cc(F)c2)[C@@H](O)C[C@@H](OC)C(=O)NC2CC2)c1
Ki [2]: 220 nM
